Patent US20220387358A1, “CERAMIDE ANALOG SACLAC MODULATES SPHINGOLIPID LEVELS AND MCL-1 SPLICING TO INDUCE APOPTOSIS IN ACUTE MYELOID LEUKEMIA” (University of Virginia Patent Foundation, priority 2019, published 2022)

How the values were obtained:
OCI-AML2 cells = experiment: Western blot of SF3B1, Mcl-1S and Mcl-1L protein expression; format: cell-based, human
Experimental: Cells were plated at 2.5×10^5 cells per ml in 6-well plates and treated with drug, vehicle or siRNA at the indicated doses and time points. Cells were harvested, washed with PBS and lysed prior to preparation of protein extracts for western blotting.
More particularly, cells were lysed with RIPA buffer (#R0278, Sigma, St. Louis, Mo., United States of America) containing phosphatase inhibitor cocktails 2 and 3 (Sigma #P5726, #P0044) and protease inhibitor cocktail (#P8340, Sigma, St. Louis, Mo., United States of America). Protein was quantified using a bicinchoninic acid (BCA) protein assay kit (#23225, Pierce, Waltham, Mass., United States of America). Samples were resolved on a Bolt 4-12% SDS-PAGE gel (#NW00082, ThermoFisher Scientific, Waltham, Mass., United States of America) and transferred to PVDF membrane (#170-4274, Bio-Rad Laboratories, Hercules, Calif., United States of America). Antibodies were obtained from Cell Signaling Technology (Danvers, Mass., United States of America) unless indicated otherwise. Primary antibodies used were: Mcl-1 (#5453, RRID #AB 10694494), SF3B1 (#14434, RRID #AB 2798479), β-actin (#3700, RRID #AB_2242334) and AC (BD Biosciences #612302 (San Jose, California, United States of America), RRID #AB_399617). Secondary antibodies used were HRP-linked goat anti-mouse (#7076, RRID #AB_330924) or goat anti-rabbit IgG (#7074, RRID # AB_2099233). Clarity Max Western ECL Substrate (#1705062, Bio-Rad Laboratories, Hercules, Calif., United States of America) was added to visualize relative protein expression by chemiluminescence using the Bio-Rad ChemiDoc MP imaging system (Bio-Rad Laboratories, Hercules, Calif., United States of America). Quantification was done using Bio-Rad ImageLab 6.0.1 software (Bio-Rad Laboratories, Hercules, Calif., United States of America). For quantification, bands were normalized to β-actin as a loading control.

acid ceramidase (AC) = biological target: T1, acid ceramidase (AC) (Homo sapiens, UniProt Q13510); experiment: Acid ceramidase activity assay (RBM14C12 fluorogenic substrate) in human AML cell lines; format: cell-based; conditions: LCL204 5 or 10 μM vs SACLAC 1.25 or 2.5 μM; HL-60/VCR, THP-1, OCI-AML2
T1 construct: endogenous in cells; host or cells: HL-60/VCR, THP-1 and OCI-AML2 human AML cell lines
T1 sequence (Q13510 143-395 limits assumed): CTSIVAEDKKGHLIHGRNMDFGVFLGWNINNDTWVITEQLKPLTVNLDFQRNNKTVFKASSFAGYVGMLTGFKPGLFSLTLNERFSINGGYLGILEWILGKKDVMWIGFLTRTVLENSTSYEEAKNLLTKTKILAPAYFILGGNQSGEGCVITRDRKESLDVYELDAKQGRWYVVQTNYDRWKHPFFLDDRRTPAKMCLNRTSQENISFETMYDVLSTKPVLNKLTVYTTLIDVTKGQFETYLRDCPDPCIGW
T1 sequence (Q13510 22-142 limits assumed): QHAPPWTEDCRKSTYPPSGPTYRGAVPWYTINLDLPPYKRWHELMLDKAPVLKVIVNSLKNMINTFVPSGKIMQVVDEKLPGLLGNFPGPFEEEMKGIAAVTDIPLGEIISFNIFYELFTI
Experimental: Cells were seeded at 2×10^4 cells per well in 50 μl Acid ceramidase activity was measured at 24 hours using the RBM14C12 fluorogenic substrate as previously described (22,34).

hAML cell lines = experiment: Venetoclax sensitivity of hAML cell lines; format: cell-based, human; conditions: sensitive (MV4-11, MOLM-13, OCL-AML2) vs resistant (MM-6, THP-1, HL-60/VCR, OCI-AML3)
Experimental: Venetoclax sensitive cell lines can be co-treated with SACLAC (0.3 to 2.5 μM) and venetoclax (1 to 32 nM). […] Cell viability can be determined by MTS assay 24 hours after treatment. CompuSyn software (ComboSyn Inc., Paramus, N.J., United States of America) can be used to determine synergy. A combination index (CI) of >1, 1, and <1 indicates antagonism, additive effect, and synergism, respectively, with increasing synergism indicated by values approaching zero.

For CN(C)CC[C@H](CSc1ccccc1)Nc1ccc(S(=O)(=O)NC(=O)c2ccc(N3CCN(Cc4ccccc4-c4ccc(Cl)cc4)CC3)cc2)cc1[N+](=O)[O-] [ABT-737, 4-[4-[[2-(4-chlorophenyl)phenyl]methyl]piperazin-l-yl]-N-[4-[[(2R)-4-(dimethylamino)-1-phenylsulfanylbutan-2-yl]amino]-3-nitrophenyl]sulfonylbenzamide, reference compound], the “Mcl-1 cleavage fragment (caspase-mediated)” value (OCI-AML2 cells; ABT-737 75 nM, 24 hours, abrogated by Z-VAD-FMK 50 μM) was “smaller fragment of approximately 22 kDa”.

For CCCCCCCCCCCCC/C=C/[C@@H](O)[C@H](CO)NC(=O)CCCCCCCCCCCCCCC [C16 ceramide, reference compound], the SF3B1 protein (OCI-AML2 cells; C16 ceramide 20 μM, 48 hours) was “reduction” and the “ratio of Mcl-1S to Mcl-1L” value (OCI-AML2 cells; C16 ceramide 20 μM, 48 hours) was “increase”.

CCCCCCCCCCCCCCN[C@H](CO)[C@H](O)c1ccc([N+](=O)[O-])cc1 [LCL204, (1R, 2R)-2-N-(tetradecylamino)-1-(4′-nitrophenyl)-1,3-propandiol, reference compound] was tested, and the “dose required to achieve similar AC inhibition as SACLAC” value (acid ceramidase (AC)) was “four-fold higher dose”.

CO[C@]1(C)C[C@@]2(CO2)[C@H](O)[C@@H](/C=C/C(C)=C/C[C@@H]2O[C@H](C)[C@H](NC(=O)/C=C\[C@H](C)OC(C)=O)C[C@@H]2C)O1 [Spliceostatin A, reference compound] was tested, and the Mcl-1S protein (OCI-AML2 cells; 5, 10 or 20 nM, 6 hours) was “dose-dependent increase”.

CC1(C)CCC(CN2CCN(c3ccc(C(=O)NS(=O)(=O)c4ccc(NCC5CCOCC5)c([N+](=O)[O-])c4)c(Oc4cnc5[nH]ccc5c4)c3)CC2)=C(c2ccc(Cl)cc2)C1 [Venetoclax] was tested, and the “difference in sensitivity between venetoclax sensitive and resistant cell lines” value (hAML cell lines) was over 100 fold.
